Data as given in publication PMC8229181, “Chemical Characterization and Anti-Inflammatory Activity of Phytoconstituents from Swertia alata” (Plants, 2021).

What was measured:
ovine COX-1 = target: T1, ovine COX-1 (Ovis aries, UniProt P05979); test: In vitro COX-1 inhibitory assay (enzyme immunoassay kit); type: biochemical; details: ovine COX-1, enzyme immunoassay kit
T1 construct: purchased Cayman Chemicals Inc., Ann Arbor, MI, USA 560131
T1 sequence (P05979 25-600): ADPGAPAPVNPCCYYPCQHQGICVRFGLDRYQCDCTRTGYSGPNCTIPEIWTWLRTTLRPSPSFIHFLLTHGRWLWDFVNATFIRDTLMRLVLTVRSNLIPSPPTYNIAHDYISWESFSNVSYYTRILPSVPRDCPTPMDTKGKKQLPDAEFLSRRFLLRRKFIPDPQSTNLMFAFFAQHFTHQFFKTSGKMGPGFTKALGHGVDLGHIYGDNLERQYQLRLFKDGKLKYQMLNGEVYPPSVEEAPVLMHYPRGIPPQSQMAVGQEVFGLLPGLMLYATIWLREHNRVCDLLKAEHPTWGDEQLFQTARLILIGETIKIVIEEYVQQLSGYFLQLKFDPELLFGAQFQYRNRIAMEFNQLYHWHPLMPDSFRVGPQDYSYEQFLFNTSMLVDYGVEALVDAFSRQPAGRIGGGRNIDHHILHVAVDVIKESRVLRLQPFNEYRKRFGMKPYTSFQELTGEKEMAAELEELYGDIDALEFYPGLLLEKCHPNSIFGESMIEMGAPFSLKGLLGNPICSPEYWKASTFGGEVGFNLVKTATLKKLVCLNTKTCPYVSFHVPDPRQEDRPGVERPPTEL
Experimental: (§1) The enzymatic assay was performed as per the manufacturer’s assay instructions and standard literature [48]. COX-1 and COX-2 enzymatic activity provides a simple, sensitive, and high-throughput adaptable method to detect the peroxidase activity of COX in biological samples or purified/crude enzyme preparations. The kit includes COX-1 and COX-2 specific inhibitors to differentiate the activity of COX-1 and COX-2 as well as other peroxidases, which may be present in the sample [49].

human recombinant COX-2 = human recombinant COX-2 (Homo sapiens, UniProt P35354); test: In vitro COX-2 inhibitory assay (enzyme immunoassay kit); type: biochemical; details: human recombinant COX-2, enzyme immunoassay kit
Chain of human recombinant COX-2 (P35354 18-604): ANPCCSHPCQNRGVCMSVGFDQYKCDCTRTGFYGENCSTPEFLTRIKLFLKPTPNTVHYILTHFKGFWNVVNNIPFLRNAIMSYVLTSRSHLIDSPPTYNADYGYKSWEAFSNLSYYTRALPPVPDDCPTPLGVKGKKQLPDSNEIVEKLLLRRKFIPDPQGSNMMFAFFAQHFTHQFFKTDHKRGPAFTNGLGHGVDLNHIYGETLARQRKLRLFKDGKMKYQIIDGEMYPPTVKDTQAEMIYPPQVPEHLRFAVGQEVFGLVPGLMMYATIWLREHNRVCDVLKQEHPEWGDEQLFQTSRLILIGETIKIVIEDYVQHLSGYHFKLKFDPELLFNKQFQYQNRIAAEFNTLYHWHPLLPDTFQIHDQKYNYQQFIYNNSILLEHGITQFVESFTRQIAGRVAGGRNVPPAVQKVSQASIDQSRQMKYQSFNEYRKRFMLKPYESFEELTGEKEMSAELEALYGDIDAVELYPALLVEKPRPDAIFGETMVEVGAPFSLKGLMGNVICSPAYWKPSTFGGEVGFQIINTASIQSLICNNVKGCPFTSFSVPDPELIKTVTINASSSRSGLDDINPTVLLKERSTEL
Experimental: as §1

[1] = tested on: carrageenan induced rat paw edema; test: Carrageenan-induced rat paw edema method; type: in vivo, Wistar albino rat; details: for Increase in Paw Edema (Mean ± SEM): 3 h after inducing edema, rat
Source text: Carageenan was used to induced paw Edema in Wistar albino rat. Carrageenan induced paw edema is a standard assay for acute inflammation that is effectively employed to evaluate the phytoisolate against anti-inflammatory activity. Edema is produced by a sequential release of inflammatory mediators such as histamine, serotonin, kinnins, prostaglandins and bradykinins, which leads to fluid accumulation. Edema is characteristic of an acute inflammatory response. The release of histamine or serotonin occurs in the first phase (up to 1 h) and the second phase (over 1 h) is associated with the production of bradykinins. It is well known that the third phase of the edema induced by carrageenan, in which the edema reaches its highest volume, is characterized by the presence of prostaglandins and other compounds of slow reaction. Previous studies have shown that phytocompounds of S. alata play an important pharmacological role in inflammation. […] Moreover, several studies support that S. alata species have shown antioxidative effects. Inhibition of COX by S. alata leads to a decrease in all prostaglandin and thromboxane synthesis, which accounts for the beneficial anti-inflammatory and prevents ulcerogenic effects. […] Based on the antioxidant effect, SA4 may involve the inhibition of cyclooxygenase/prostaglandin-endoperoxide synthase (PGHS-1 and PGHS-2), and regulatory enzymes, involved in the biosynthesis of prostaglandin (PG) which is strongly implicated in inflammation.
The anti-inflammatory activity of isolated compound was evaluated on Wistar albino rat using carrageenan induced rat paw edema method as per the procedure described in earlier research. The animals were divided into groups, consisting of five rats in each group. The prepared compounds were administered orally at doses of 2, 4, 8 mg/kg body weight (oral gavage) and the volume of paw was determined plethysmographically (Ugo-Basile, Gemonio (VA), Italy). […] Carrageenan (0.1 mL, 1.0% w/v in 0.9% of normal saline) was injected after half an hour into the sub-plantar tissue of the rat’s hind paw. The paw volume was measured at hourly intervals for 3 h (0, 1, 2, and 3 h) and the percent inhibition of edema was calculated using the following formula:% inhibition = (1 − Vs/Vc × 100),(1) where, Vs = paw volume in sample treated group, Vc = paw volume in control group.

| SMILES | IC50 (ovine COX-1) | IC50 (human recombinant COX-2) | Increase in Paw Edema (Mean ± SEM) ([1]; 2 mg/kg oral) | Increase in Paw Edema (Mean ± SEM) ([1]; 4 mg/kg oral) | Increase in Paw Edema (Mean ± SEM) ([1]; 8 mg/kg oral) | development of edema at the third hour after treatment ([1]; 8 mg/kg, third hour, p < 0.05) | Increase in Paw Edema (Mean ± SEM) ([1]; reference drug, oral (8 mg/kg; 21 mg/kg elsewhere in the source)) |
| --- | --- | --- | --- | --- | --- | --- | --- |
| CC(C)C1CCC2(C(=O)O)CCC3(C)C(=CCC4C5(C)CCC(O)C(C)(C)C5CCC43C)C12 (stereo not shown) [SA-4, 3-hydroxylup-12-(13)-ene-17-carboxylic acid] | 104 µM | 61.7 µM | 0.28 ± 0.00 mL | 0.26 ± 0.22 mL | 0.17 ± 0.01 mL | significantly inhibited |  |
| COc1ccc2c(c1)c(CC(=O)O)c(C)n2C(=O)c1ccc(Cl)cc1 [Indomethacin, reference compound] |  |  |  |  |  |  | 0.15 ± 0.02 mL |
| CC1(C)CC[C@]2(C(=O)O)CC[C@]3(C)C(=CC[C@@H]4[C@@]5(C)CC[C@H](O)C(C)(C)[C@@H]5CC[C@]43C)[C@@H]2C1 [SA-1, oleanolic acid] |  |  | 0.29 ± 0.00 mL | 0.27 ± 0.22 mL | 0.23 ± 0.01 mL |  |  |
